Data: patent publication US9340590B2 (priority 2011, dated 2016)

Legend:
Experiment in all cases: cell-based
[1] = biological target: hNav1.3 (Homo sapiens, UniProt Q9NY46); settings: IonWorks Quattro, use-dependent block, hNav1.3; read-out: IWQ Use Nav1.3
[2] = biological target: hNav1.7 (Homo sapiens, UniProt Q15858); format: cell-based; settings: IonWorks Quattro, use-dependent block, hNav1.7; read-out: IWQ Use Nav1.7
[3] = biological target: hNav1.5 (Homo sapiens, UniProt Q14524); settings: IonWorks Quattro, use-dependent block, hNav1.5; read-out: IWQ Use Nav1.5

Sequence of hNav1.3 (Q9NY46 whole entry, looked up): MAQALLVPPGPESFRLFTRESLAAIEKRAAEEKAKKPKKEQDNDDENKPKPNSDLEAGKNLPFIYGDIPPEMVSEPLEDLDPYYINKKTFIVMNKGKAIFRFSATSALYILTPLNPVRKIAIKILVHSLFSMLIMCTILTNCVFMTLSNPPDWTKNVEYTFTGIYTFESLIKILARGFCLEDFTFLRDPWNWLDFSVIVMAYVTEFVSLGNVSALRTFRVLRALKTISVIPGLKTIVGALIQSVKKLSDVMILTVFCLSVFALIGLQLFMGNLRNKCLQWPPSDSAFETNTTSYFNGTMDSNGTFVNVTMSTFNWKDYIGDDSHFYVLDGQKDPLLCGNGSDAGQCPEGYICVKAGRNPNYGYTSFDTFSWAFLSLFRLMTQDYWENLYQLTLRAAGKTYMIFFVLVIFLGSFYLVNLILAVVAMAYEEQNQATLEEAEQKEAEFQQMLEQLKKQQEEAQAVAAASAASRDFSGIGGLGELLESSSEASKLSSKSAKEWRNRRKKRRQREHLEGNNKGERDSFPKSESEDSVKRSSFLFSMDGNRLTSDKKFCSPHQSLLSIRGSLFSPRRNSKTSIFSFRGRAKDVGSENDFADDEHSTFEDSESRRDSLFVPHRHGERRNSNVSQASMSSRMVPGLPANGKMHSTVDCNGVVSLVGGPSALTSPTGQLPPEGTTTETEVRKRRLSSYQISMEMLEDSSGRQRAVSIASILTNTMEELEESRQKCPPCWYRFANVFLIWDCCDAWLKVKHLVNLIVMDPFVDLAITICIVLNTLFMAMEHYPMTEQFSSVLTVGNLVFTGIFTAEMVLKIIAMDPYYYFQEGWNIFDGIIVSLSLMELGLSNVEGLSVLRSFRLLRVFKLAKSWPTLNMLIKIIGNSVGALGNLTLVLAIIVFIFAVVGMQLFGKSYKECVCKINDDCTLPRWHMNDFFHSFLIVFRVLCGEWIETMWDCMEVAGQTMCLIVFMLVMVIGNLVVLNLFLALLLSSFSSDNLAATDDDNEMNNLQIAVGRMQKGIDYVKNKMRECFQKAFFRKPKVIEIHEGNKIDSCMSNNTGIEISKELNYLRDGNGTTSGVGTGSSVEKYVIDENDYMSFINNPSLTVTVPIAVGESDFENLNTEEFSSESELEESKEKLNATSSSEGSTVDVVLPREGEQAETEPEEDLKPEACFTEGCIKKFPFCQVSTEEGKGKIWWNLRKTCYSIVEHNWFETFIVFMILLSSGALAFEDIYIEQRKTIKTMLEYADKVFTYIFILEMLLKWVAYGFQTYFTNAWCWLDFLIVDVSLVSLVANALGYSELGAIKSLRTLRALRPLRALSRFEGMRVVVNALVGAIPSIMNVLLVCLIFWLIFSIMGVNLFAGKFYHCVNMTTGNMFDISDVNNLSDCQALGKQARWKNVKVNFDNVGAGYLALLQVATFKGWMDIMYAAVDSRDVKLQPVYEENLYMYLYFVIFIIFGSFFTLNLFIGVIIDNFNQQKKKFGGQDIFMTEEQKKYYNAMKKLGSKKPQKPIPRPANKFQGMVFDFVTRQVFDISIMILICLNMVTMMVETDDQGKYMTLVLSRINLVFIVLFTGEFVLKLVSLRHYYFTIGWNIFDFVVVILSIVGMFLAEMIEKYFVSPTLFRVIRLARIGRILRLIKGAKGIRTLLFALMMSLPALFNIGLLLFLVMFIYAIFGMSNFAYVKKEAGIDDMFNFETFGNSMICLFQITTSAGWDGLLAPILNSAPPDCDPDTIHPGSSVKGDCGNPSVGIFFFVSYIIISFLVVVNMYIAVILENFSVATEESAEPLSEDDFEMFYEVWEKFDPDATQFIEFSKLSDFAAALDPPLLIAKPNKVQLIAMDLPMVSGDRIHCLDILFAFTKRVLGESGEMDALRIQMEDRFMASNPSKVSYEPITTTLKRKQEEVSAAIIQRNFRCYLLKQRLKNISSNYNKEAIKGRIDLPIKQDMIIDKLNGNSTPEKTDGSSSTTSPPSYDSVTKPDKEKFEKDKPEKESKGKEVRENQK
Sequence of hNav1.7 (Q15858 whole entry, looked up): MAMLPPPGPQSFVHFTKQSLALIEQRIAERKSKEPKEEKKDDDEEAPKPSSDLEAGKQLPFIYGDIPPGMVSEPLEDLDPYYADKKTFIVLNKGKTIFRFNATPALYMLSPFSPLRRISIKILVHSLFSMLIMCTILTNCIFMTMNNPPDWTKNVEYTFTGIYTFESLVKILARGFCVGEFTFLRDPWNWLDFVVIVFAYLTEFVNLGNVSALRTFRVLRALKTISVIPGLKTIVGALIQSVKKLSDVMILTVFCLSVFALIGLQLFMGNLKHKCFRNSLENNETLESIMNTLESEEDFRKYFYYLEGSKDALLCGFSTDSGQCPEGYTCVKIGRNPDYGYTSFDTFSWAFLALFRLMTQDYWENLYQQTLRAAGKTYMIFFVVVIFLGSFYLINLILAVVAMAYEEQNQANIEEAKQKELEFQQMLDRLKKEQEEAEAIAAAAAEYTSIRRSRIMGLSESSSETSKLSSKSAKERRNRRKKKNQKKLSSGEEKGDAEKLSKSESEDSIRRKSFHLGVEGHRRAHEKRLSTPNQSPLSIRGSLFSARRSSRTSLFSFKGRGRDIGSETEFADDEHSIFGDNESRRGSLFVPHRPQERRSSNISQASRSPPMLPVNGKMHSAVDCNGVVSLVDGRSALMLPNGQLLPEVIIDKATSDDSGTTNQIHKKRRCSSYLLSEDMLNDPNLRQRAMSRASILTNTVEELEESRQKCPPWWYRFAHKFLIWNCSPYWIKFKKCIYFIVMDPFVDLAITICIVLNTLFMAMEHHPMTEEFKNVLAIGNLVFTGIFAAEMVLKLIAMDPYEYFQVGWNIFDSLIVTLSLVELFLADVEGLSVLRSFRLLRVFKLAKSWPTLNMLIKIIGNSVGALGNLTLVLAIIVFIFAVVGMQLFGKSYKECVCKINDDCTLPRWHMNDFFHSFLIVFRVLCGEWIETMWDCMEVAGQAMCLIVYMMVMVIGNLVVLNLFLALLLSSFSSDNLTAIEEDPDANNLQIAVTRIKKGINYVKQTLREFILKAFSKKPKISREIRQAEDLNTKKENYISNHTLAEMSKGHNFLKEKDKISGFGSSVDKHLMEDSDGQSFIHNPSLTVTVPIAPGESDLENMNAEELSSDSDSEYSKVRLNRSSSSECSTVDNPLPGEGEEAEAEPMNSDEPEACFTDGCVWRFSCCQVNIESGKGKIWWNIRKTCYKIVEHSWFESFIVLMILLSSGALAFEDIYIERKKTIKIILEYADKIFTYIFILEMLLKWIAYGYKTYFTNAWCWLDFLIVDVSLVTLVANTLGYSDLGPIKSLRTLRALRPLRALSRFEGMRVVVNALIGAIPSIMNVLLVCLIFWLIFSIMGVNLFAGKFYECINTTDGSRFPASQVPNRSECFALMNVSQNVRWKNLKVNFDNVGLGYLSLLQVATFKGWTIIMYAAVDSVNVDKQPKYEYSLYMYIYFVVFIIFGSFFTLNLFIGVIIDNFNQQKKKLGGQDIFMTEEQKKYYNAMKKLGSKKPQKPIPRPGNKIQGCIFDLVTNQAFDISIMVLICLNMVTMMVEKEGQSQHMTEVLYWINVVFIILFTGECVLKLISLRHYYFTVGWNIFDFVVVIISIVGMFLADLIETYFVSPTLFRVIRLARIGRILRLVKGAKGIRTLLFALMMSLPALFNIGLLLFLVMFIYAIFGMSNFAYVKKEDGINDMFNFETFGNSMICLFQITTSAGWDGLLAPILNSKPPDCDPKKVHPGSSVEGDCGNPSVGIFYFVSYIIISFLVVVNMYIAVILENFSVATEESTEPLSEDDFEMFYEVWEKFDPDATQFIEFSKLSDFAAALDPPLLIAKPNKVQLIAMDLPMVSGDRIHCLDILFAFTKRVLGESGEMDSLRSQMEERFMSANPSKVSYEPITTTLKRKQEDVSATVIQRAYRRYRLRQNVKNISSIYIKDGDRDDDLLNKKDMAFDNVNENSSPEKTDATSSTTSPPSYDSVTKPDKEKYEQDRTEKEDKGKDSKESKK

| Compound | IC50 [1] [µM] | IC50 [2] [µM] | IC50 [3] [µM] |
| --- | --- | --- | --- |
| CC[C@H](C)[C@@H]1NC(=O)[C@@H]2CSSC[C@@H]3NC(=O)[C@H](C(C)C)NC(=O)[C@H](CC(C)C)NC(=O)[C@H](CC(N)=O)NC(=O)[C@@H]4CCCN4C(=O)[C@H](CCCNC(=N)N)NC(=O)[C@H](CSSC[C@H](NC(=O)[C@@H](N)CC(=O)O)C(=O)N[C@@H](CC(C)C)C(=O)NCC(=O)N[C@@H](C)C(=O)N[C@@H](Cc4ccccc4)C(=O)N[C@@H](CCCNC(=N)N)C(=O)N[C@@H](CCCCN)C(=O)N2)NC(=O)[C@H](CSSC[C@@H](C(=O)N[C@@H](CCCCN)C(=O)N[C@@H](Cc2ccc(O)cc2)C(=O)N[C@H](C(=O)N[C@@H](Cc2ccccc2)C(=O)O)C(C)C)NC(=O)[C@H](Cc2c[nH]c4ccccc24)NC(=O)[C@H](CCCNC(=N)N)NC(=O)[C@H](Cc2c[nH]cn2)NC(=O)[C@H]([C@@H](C)O)NC(=O)[C@H](CCCNC(=N)N)NC(=O)[C@H](CO)NC3=O)NC(=O)[C@H](CCCCN)NC(=O)[C@H](CC(=O)O)NC(=O)[C@H](Cc2ccccc2)NC(=O)[C@H](CC(=O)O)NC(=O)[C@@H]2CCCN2C1=O [compound 839] | 1.2 | > 5 | > 5 |
| CC[C@H](C)[C@@H]1NC(=O)[C@@H]2CSSC[C@@H]3NC(=O)[C@H](C(C)C)NC(=O)[C@H](CC(C)C)NC(=O)[C@H](CC(N)=O)NC(=O)[C@@H]4CCCN4C(=O)[C@H](CCCNC(=N)N)NC(=O)[C@H](CSSC[C@H](NC(=O)[C@@H](N)CC(=O)O)C(=O)N[C@@H](CC(C)C)C(=O)NCC(=O)N[C@@H](C)C(=O)N[C@@H](Cc4ccccc4)C(=O)N[C@@H](CCCNC(=N)N)C(=O)N[C@@H](CCCCN)C(=O)N2)NC(=O)[C@H](CSSC[C@@H](C(=O)N[C@@H](CCCCN)C(=O)N[C@@H](Cc2ccc(O)cc2)C(=O)N[C@H](C(=O)N[C@@H](Cc2ccccc2)C(=O)O)C(C)C)NC(=O)[C@H](Cc2c[nH]c4ccccc24)NC(=O)[C@H](CCCNC(=N)N)NC(=O)[C@H](Cc2c[nH]cn2)NC(=O)[C@H]([C@@H](C)O)NC(=O)[C@H](CCCNC(=N)N)NC(=O)[C@H](CO)NC3=O)NC(=O)[C@H](CCCCN)NC(=O)[C@H](CC(=O)O)NC(=O)CNC(=O)[C@H](CC(=O)O)NC(=O)[C@@H]2CCCN2C1=O [compound 840] | 1.5 | > 5 | > 5 |
| CC[C@H](C)[C@@H]1NC(=O)[C@@H]2CSSC[C@@H]3NC(=O)[C@H](C(C)C)NC(=O)[C@H](CC(C)C)NC(=O)[C@H](CC(N)=O)NC(=O)[C@@H]4CCCN4C(=O)[C@H](CCCNC(=N)N)NC(=O)[C@H](CSSC[C@H](NC(=O)[C@@H](N)CC(=O)O)C(=O)N[C@@H](CC(C)C)C(=O)NCC(=O)N[C@@H](C)C(=O)N[C@@H](Cc4ccccc4)C(=O)N[C@@H](CCCNC(=N)N)C(=O)N[C@@H](CCCCN)C(=O)N2)NC(=O)[C@H](CSSC[C@@H](C(=O)N[C@@H](CCCCN)C(=O)N[C@@H](Cc2ccc(O)cc2)C(=O)N[C@H](C(=O)N[C@@H](Cc2ccccc2)C(=O)O)C(C)C)NC(=O)[C@H](Cc2c[nH]c4ccccc24)NC(=O)[C@H](CCCNC(=N)N)NC(=O)[C@H](Cc2c[nH]cn2)NC(=O)[C@H]([C@@H](C)O)NC(=O)[C@H](CCCNC(=N)N)NC(=O)[C@H](CO)NC3=O)NC(=O)[C@H](CCCCN)NC(=O)[C@H](CC(=O)O)NC(=O)[C@H](Cc2c[nH]cn2)NC(=O)[C@H](CC(=O)O)NC(=O)[C@@H]2CCCN2C1=O [compound 841] | > 5 | > 5 | > 5 |
| CC[C@H](C)[C@@H]1NC(=O)[C@H](CC(=O)O)NC(=O)[C@@H]2CCCN2C(=O)[C@H]([C@@H](C)CC)NC(=O)[C@@H]2CSSC[C@@H]3NC(=O)[C@H](C(C)C)NC(=O)[C@H](CC(C)C)NC(=O)[C@H](CC(N)=O)NC(=O)[C@@H]4CCCN4C(=O)[C@H](CCCNC(=N)N)NC(=O)[C@H](CSSC[C@H](NC(=O)[C@@H](N)CC(=O)O)C(=O)N[C@@H](CC(C)C)C(=O)NCC(=O)N[C@@H](C)C(=O)N[C@@H](Cc4ccccc4)C(=O)N[C@@H](CCCNC(=N)N)C(=O)N[C@@H](CCCCN)C(=O)N2)NC(=O)[C@H](CSSC[C@@H](C(=O)N[C@@H](CCCCN)C(=O)N[C@@H](Cc2ccc(O)cc2)C(=O)N[C@H](C(=O)N[C@@H](Cc2ccccc2)C(=O)O)C(C)C)NC(=O)[C@H](Cc2c[nH]c4ccccc24)NC(=O)[C@H](CCCNC(=N)N)NC(=O)[C@H](Cc2c[nH]cn2)NC(=O)[C@H]([C@@H](C)O)NC(=O)[C@H](CCCNC(=N)N)NC(=O)[C@H](CO)NC3=O)NC(=O)[C@H](CCCCN)NC(=O)[C@H](CC(=O)O)NC1=O [compound 842] | 3 | > 5 | > 5 |
| CC[C@H](C)[C@@H]1NC(=O)[C@@H]2CSSC[C@@H]3NC(=O)[C@H](C(C)C)NC(=O)[C@H](CC(C)C)NC(=O)[C@H](CC(N)=O)NC(=O)[C@@H]4CCCN4C(=O)[C@H](CCCNC(=N)N)NC(=O)[C@H](CSSC[C@H](NC(=O)[C@@H](N)CC(=O)O)C(=O)N[C@@H](CC(C)C)C(=O)NCC(=O)N[C@@H](C)C(=O)N[C@@H](Cc4ccccc4)C(=O)N[C@@H](CCCNC(=N)N)C(=O)N[C@@H](CCCCN)C(=O)N2)NC(=O)[C@H](CSSC[C@@H](C(=O)N[C@@H](CCCCN)C(=O)N[C@@H](Cc2ccc(O)cc2)C(=O)N[C@H](C(=O)N[C@@H](Cc2ccccc2)C(=O)O)C(C)C)NC(=O)[C@H](Cc2c[nH]c4ccccc24)NC(=O)[C@H](CCCNC(=N)N)NC(=O)[C@H](Cc2c[nH]cn2)NC(=O)[C@H]([C@@H](C)O)NC(=O)[C@H](CCCNC(=N)N)NC(=O)[C@H](CO)NC3=O)NC(=O)[C@H](CCCCN)NC(=O)[C@H](CC(=O)O)NC(=O)[C@H](CCCCN)NC(=O)[C@H](CC(=O)O)NC(=O)[C@@H]2CCCN2C1=O [compound 843] | 0.3 | 3.6 | 2.8 |
| CC[C@H](C)[C@@H]1NC(=O)[C@@H]2CSSC[C@@H]3NC(=O)[C@H](C(C)C)NC(=O)[C@H](CC(C)C)NC(=O)[C@H](CC(N)=O)NC(=O)[C@@H]4CCCN4C(=O)[C@H](CCCNC(=N)N)NC(=O)[C@H](CSSC[C@H](NC(=O)[C@@H](N)CC(=O)O)C(=O)N[C@@H](CC(C)C)C(=O)NCC(=O)N[C@@H](C)C(=O)N[C@@H](Cc4ccccc4)C(=O)N[C@@H](CCCNC(=N)N)C(=O)N[C@@H](CCCCN)C(=O)N2)NC(=O)[C@H](CSSC[C@@H](C(=O)N[C@@H](CCCCN)C(=O)N[C@@H](Cc2ccc(O)cc2)C(=O)N[C@H](C(=O)N[C@@H](Cc2ccccc2)C(=O)O)C(C)C)NC(=O)[C@H](Cc2c[nH]c4ccccc24)NC(=O)[C@H](CCCNC(=N)N)NC(=O)[C@H](Cc2c[nH]cn2)NC(=O)[C@H]([C@@H](C)O)NC(=O)[C@H](CCCNC(=N)N)NC(=O)[C@H](CO)NC3=O)NC(=O)[C@H](CCCCN)NC(=O)[C@H](CC(=O)O)NC(=O)[C@H](CC(C)C)NC(=O)[C@H](CC(=O)O)NC(=O)[C@@H]2CCCN2C1=O [compound 844] | 4.5 | 4.5 | > 5 |
| CC[C@H](C)[C@@H]1NC(=O)[C@@H]2CSSC[C@@H]3NC(=O)[C@H](C(C)C)NC(=O)[C@H](CC(C)C)NC(=O)[C@H](CC(N)=O)NC(=O)[C@@H]4CCCN4C(=O)[C@H](CCCNC(=N)N)NC(=O)[C@H](CSSC[C@H](NC(=O)[C@@H](N)CC(=O)O)C(=O)N[C@@H](CC(C)C)C(=O)NCC(=O)N[C@@H](C)C(=O)N[C@@H](Cc4ccccc4)C(=O)N[C@@H](CCCNC(=N)N)C(=O)N[C@@H](CCCCN)C(=O)N2)NC(=O)[C@H](CSSC[C@@H](C(=O)N[C@@H](CCCCN)C(=O)N[C@@H](Cc2ccc(O)cc2)C(=O)N[C@H](C(=O)N[C@@H](Cc2ccccc2)C(=O)O)C(C)C)NC(=O)[C@H](Cc2c[nH]c4ccccc24)NC(=O)[C@H](CCCNC(=N)N)NC(=O)[C@H](Cc2c[nH]cn2)NC(=O)[C@H]([C@@H](C)O)NC(=O)[C@H](CCCNC(=N)N)NC(=O)[C@H](CO)NC3=O)NC(=O)[C@H](CCCCN)NC(=O)[C@H](CC(=O)O)NC(=O)[C@H](CCSC)NC(=O)[C@H](CC(=O)O)NC(=O)[C@@H]2CCCN2C1=O [compound 845] | 0.8 | 4.7 | > 5 |
| CC[C@H](C)[C@@H]1NC(=O)[C@@H]2CSSC[C@@H]3NC(=O)[C@H](C(C)C)NC(=O)[C@H](CC(C)C)NC(=O)[C@H](CC(N)=O)NC(=O)[C@@H]4CCCN4C(=O)[C@H](CCCNC(=N)N)NC(=O)[C@H](CSSC[C@H](NC(=O)[C@@H](N)CC(=O)O)C(=O)N[C@@H](CC(C)C)C(=O)NCC(=O)N[C@@H](C)C(=O)N[C@@H](Cc4ccccc4)C(=O)N[C@@H](CCCNC(=N)N)C(=O)N[C@@H](CCCCN)C(=O)N2)NC(=O)[C@H](CSSC[C@@H](C(=O)N[C@@H](CCCCN)C(=O)N[C@@H](Cc2ccc(O)cc2)C(=O)N[C@H](C(=O)N[C@@H](Cc2ccccc2)C(=O)O)C(C)C)NC(=O)[C@H](Cc2c[nH]c4ccccc24)NC(=O)[C@H](CCCNC(=N)N)NC(=O)[C@H](Cc2c[nH]cn2)NC(=O)[C@H]([C@@H](C)O)NC(=O)[C@H](CCCNC(=N)N)NC(=O)[C@H](CO)NC3=O)NC(=O)[C@H](CCCCN)NC(=O)[C@H](CC(=O)O)NC(=O)[C@@H]2CCCN2C(=O)[C@H](CC(=O)O)NC(=O)[C@@H]2CCCN2C1=O [compound 846] | 2.9 | 2.9 | > 5 |
| CC[C@H](C)[C@@H]1NC(=O)[C@@H]2CSSC[C@@H]3NC(=O)[C@H](C(C)C)NC(=O)[C@H](CC(C)C)NC(=O)[C@H](CC(N)=O)NC(=O)[C@@H]4CCCN4C(=O)[C@H](CCCNC(=N)N)NC(=O)[C@H](CSSC[C@H](NC(=O)[C@@H](N)CC(=O)O)C(=O)N[C@@H](CC(C)C)C(=O)NCC(=O)N[C@@H](C)C(=O)N[C@@H](Cc4ccccc4)C(=O)N[C@@H](CCCNC(=N)N)C(=O)N[C@@H](CCCCN)C(=O)N2)NC(=O)[C@H](CSSC[C@@H](C(=O)N[C@@H](CCCCN)C(=O)N[C@@H](Cc2ccc(O)cc2)C(=O)N[C@H](C(=O)N[C@@H](Cc2ccccc2)C(=O)O)C(C)C)NC(=O)[C@H](Cc2c[nH]c4ccccc24)NC(=O)[C@H](CCCNC(=N)N)NC(=O)[C@H](Cc2c[nH]cn2)NC(=O)[C@H]([C@@H](C)O)NC(=O)[C@H](CCCNC(=N)N)NC(=O)[C@H](CO)NC3=O)NC(=O)[C@H](CCCCN)NC(=O)[C@H](CC(=O)O)NC(=O)[C@H](CCC(N)=O)NC(=O)[C@H](CC(=O)O)NC(=O)[C@@H]2CCCN2C1=O [compound 847] | 1.7 | > 5 | > 5 |
